From patent US9499550B2 (BRISTOL-MYERS SQUIBB COMPANY, priority 2012, dated 2016)
Read-outs that look alike come from different tables or passages of the source.

Experiments:
[1] = system: HCV genotype 1a (H77 strain) replicon in HUH-7 cells; experiment: HCV replicon luciferase reporter assay, genotype 1a; type: cell-based; settings: Hepatitis C virus, Huh-7, 72 h, HCV genotype 1a replicon luciferase, 3 days incubation
In short: (§1)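 Replicon inhibition for both genotypes was measured as Renilla luciferase signal (EnduRen, 7.5 μM final, 2 h) after 3-day, 37° C exposure of replicon-bearing HUH-7 cells in 4% FCS DMEM, 0.5% DMSO. The 1b construct carries S1179I; the 1a H77 construct carries P1496L and S2204I. Twenty-point, 3-fold dilutions were fitted four-parametrically for EC50, and CC50 was taken from multiplexed Cell Titer-Blue.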

[2] = system: HCV genotype 1b (Con1) replicon in HUH-7 cells; experiment: HCV replicon luciferase reporter assay, genotype 1b; type: cell-based; settings: Hepatitis C virus, Huh-7, 72 h, HCV genotype 1b replicon luciferase, 3 days incubation
In short: as §1

Compound	EC50 ([1]; read-out: LE_1a (EC50, range)) [nM]	EC50 ([2]; read-out: LE_1b (EC50, range)) [nM]	EC50 ([1]; read-out: LE_1a (EC50)) [nM]	EC50 ([2]; read-out: LE_1b (EC50)) [nM]
COc1nnc(O[C@@H]2C[C@H]3C(=O)N[C@]4(C(=O)NS(=O)(=O)C5CC5)C[C@H]4/C=C\CC[C@@H](C)C[C@@H](C)[C@H](NC(=O)OC(C)(C)C(F)(F)F)C(=O)N3C2)c2ccccc12 [Compound 5006, 1,1,1-trifluoro-2-methylpropan-2-yl((2R,6S,7R,9R,13aS,14aR,16aS,Z)-14a-((cyclopropylsulfonyl)carbamoyl)-2-((4-methoxyphthalazin-1-yl)oxy)-7,9-dimethyl-5,16-dioxo-1,2,3,5,6,7,8,9,10,11,13a,14,14a,15,16,16a-hexadecahydrocyclopropa[e]pyrrolo[1,2-a][1,4]diazacyclopentadecin-6-yl)carbamate]	< 5.46	< 5.46	–	–
COc1nnc(O[C@@H]2C[C@H]3C(=O)N[C@]4(C(=O)NS(=O)(=O)C5(C)CC5)C[C@H]4/C=C\CC[C@H](C)C[C@@H](C)[C@H](NC(=O)OC(C)(C)C(F)(F)F)C(=O)N3C2)c2ccccc12 [Compound 5007, 1,1,1-trifluoro-2-methylpropan-2-yl((2R,6S,7R,9S,13aS,14aR,16aS,Z)-2-((4-methoxyphthalazin-1-yl)oxy)-7,9-dimethyl-14a-(((1-methylcyclopropyl)sulfonyl)carbamoyl)-5,16-dioxo-1,2,3,5,6,7,8,9,10,11,13a,14,14a,15,16,16a-hexadecahydrocyclopropa[e]pyrrolo[1,2-a][1,4]diazacyclopentadecin-6-yl)carbamate]	< 5.46	< 5.46	–	–
COc1nnc(O[C@@H]2C[C@H]3C(=O)N[C@]4(C(=O)NS(=O)(=O)C5(C)CC5)C[C@H]4/C=C\CC[C@@H](C)C[C@@H](C)[C@H](NC(=O)OC(C)(C)C(F)(F)F)C(=O)N3C2)c2ccccc12 [Compound 5008, 1,1,1-trifluoro-2-methylpropan-2-yl((2R,6S,7R,9R,13aS,14aR,16aS,Z)-2-((4-methoxyphthalazin-1-yl)oxy)-7,9-dimethyl-14a-(((1-methylcyclopropyl)sulfonyl)carbamoyl)-5,16-dioxo-1,2,3,5,6,7,8,9,10,11,13a,14,14a,15,16,16a-hexadecahydrocyclopropa[e]pyrrolo[1,2-a][1,4]diazacyclopentadecin-6-yl)carbamate]	< 5.46	< 5.46	–	–
[2H]C([2H])([2H])C(OC(=O)N[C@@H]1C(=O)N2C[C@H](Oc3nnc(OC)c4ccccc34)C[C@H]2C(=O)N[C@]2(C(=O)NS(=O)(=O)C3(C)CC3)C[C@H]2/C=C\CC[C@H](C)C[C@H]1C)(C([2H])([2H])[2H])C(F)(F)F [Compound 5009]	< 5.46	< 5.46	–	–
[2H]C([2H])([2H])C(OC(=O)N[C@@H]1C(=O)N2C[C@H](Oc3nnc(OC)c4ccccc34)C[C@H]2C(=O)N[C@]2(C(=O)NS(=O)(=O)C3(C)CC3)C[C@H]2/C=C\CC[C@@H](C)C[C@H]1C)(C([2H])([2H])[2H])C(F)(F)F [Compound 5010]	< 5.46	< 5.46	–	–
COc1nnc(O[C@@H]2C[C@H]3C(=O)N[C@]4(C(=O)NS(=O)(=O)C5(C)CC5)C[C@H]4/C=C\CC[C@H](C)C[C@@H](C)[C@H](NC(=O)NC(C)(C)C)C(=O)N3C2)c2ccccc12 [Compound 5011, (2R,6S,7R,9S,13aS,14aR,16aS,Z)-6-(3-(tert-butyl)ureido)-2-((4-methoxyphthalazin-1-yl)oxy)-7,9-dimethyl-N-((1-methylcyclopropyl)sulfonyl)-5,16-dioxo-1,2,3,5,6,7,8,9,10,11,13a,14,14a,15,16,16a-hexadecahydrocyclopropa[e]pyrrolo[1,2-a][1,4]diazacyclopentadecine-14a-carboxamide]	4.82 to 103	4.82 to 103	41.1	14.2
COc1nnc(O[C@@H]2C[C@H]3C(=O)N[C@]4(C(=O)NS(=O)(=O)C5(C)CC5)C[C@H]4/C=C\CC[C@@H](C)C[C@@H](C)[C@H](NC(=O)NC(C)(C)C)C(=O)N3C2)c2ccccc12 [Compound 5012, (2R,6S,7R,9R,13aS,14aR,16aS,Z)-6-(3-(tert-butyl)ureido)-2-((4-methoxyphthalazin-1-yl)oxy)-7,9-dimethyl-N-((1-methylcyclopropyl)sulfonyl)-5,16-dioxo-1,2,3,5,6,7,8,9,10,11,13a,14,14a,15,16,16a-hexadecahydrocyclopropa[e]pyrrolo[1,2-a][1,4]diazacyclopentadecine-14a-carboxamide]	< 5.46	< 5.46	–	–
COc1nnc(O[C@@H]2C[C@H]3C(=O)N[C@]4(C(=O)NS(=O)(=O)C5(C)CC5)C[C@H]4/C=C\CC[C@H](C)C[C@@H](C)[C@H](NC(=O)O[C@@H]4C[C@@H]5C[C@@H]5C4)C(=O)N3C2)c2ccccc12 [Compound 5013, (1R,3r,5S)-bicyclo[3.1.0]hexan-3-yl((2R,6S,7R,9S,13aS,14aR,16aS,Z)-2-((4-methoxyphthalazin-1-yl)oxy)-7,9-dimethyl-14a-(((1-methylcyclopropyl)sulfonyl)carbamoyl)-5,16-dioxo-1,2,3,5,6,7,8,9,10,11,13a,14,14a,15,16,16a-hexadecahydrocyclopropa[e]pyrrolo[1,2-a][1,4]diazacyclopentadecin-6-yl)carbamate]	< 5.46	< 5.46	–	–
COc1nnc(O[C@@H]2C[C@H]3C(=O)N[C@]4(C(=O)NS(=O)(=O)C5(C)CC5)C[C@H]4/C=C\CC[C@@H](C)C[C@@H](C)[C@H](NC(=O)O[C@@H]4C[C@@H]5C[C@@H]5C4)C(=O)N3C2)c2ccccc12 [Compound 5014, (1R,3r,5S)-bicyclo[3.1.0]hexan-3-yl((2R,6S,7R,9R,13aS,14aR,16aS,Z)-2-((4-methoxyphthalazin-1-yl)oxy)-7,9-dimethyl-14a-(((1-methylcyclopropyl)sulfonyl)carbamoyl)-5,16-dioxo-1,2,3,5,6,7,8,9,10,11,13a,14,14a,15,16,16a-hexadecahydrocyclopropa[e]pyrrolo[1,2-a][1,4]diazacyclopentadecin-6-yl)carbamate]	< 5.46	< 5.46	–	–
COc1nnc(O[C@@H]2C[C@H]3C(=O)N[C@]4(C(=O)NS(=O)(=O)C5(C)CC5)C[C@H]4/C=C\CC[C@H](C)C[C@@H](C)[C@H](NC(=O)OC(C)(C)C)C(=O)N3C2)c2ccccc12 [Compound 5015, tert-butyl ((2R,6S,7R,9S,13aS,14aR,16aS,Z)-2-((4-methoxyphthalazin-1-yl)oxy)-7,9-dimethyl-14a-(((1-methylcyclopropyl)sulfonyl)carbamoyl)-5,16-dioxo-1,2,3,5,6,7,8,9,10,11,13a,14,14a,15,16,16a-hexadecahydrocyclopropa[e]pyrrolo[1,2-a][1,4]diazacyclopentadecin-6-yl)carbamate]	4.82 to 103	< 5.46	–	–
COc1nnc(O[C@@H]2C[C@H]3C(=O)N[C@]4(C(=O)NS(=O)(=O)C5(C)CC5)C[C@H]4/C=C\CC[C@@H](C)C[C@@H](C)[C@H](NC(=O)OC(C)(C)C)C(=O)N3C2)c2ccccc12 [Compound 5016, tert-butyl ((2R,6S,7R,9R,13aS,14aR,16aS,Z)-2-((4-methoxyphthalazin-1-yl)oxy)-7,9-dimethyl-14a-(((1-methylcyclopropyl)sulfonyl)carbamoyl)-5,16-dioxo-1,2,3,5,6,7,8,9,10,11,13a,14,14a,15,16,16a-hexadecahydrocyclopropa[e]pyrrolo[1,2-a][1,4]diazacyclopentadecin-6-yl)carbamate]	< 5.46	< 5.46	–	–
CC[C@@H]1C[C@@H](C)CC/C=C\[C@@H]2C[C@@]2(C(=O)NS(=O)(=O)C2(C)CC2)NC(=O)[C@@H]2C[C@@H](Oc3nnc(OC)c4ccccc34)CN2C(=O)[C@H]1NC(=O)OC(C)(C)C(F)(F)F [Compound 5017, 1,1,1-trifluoro-2-methylpropan-2-yl((2R,6S,7R,9S,13aS,14aR,16aS,Z)-7-ethyl-2-((4-methoxyphthalazin-1-yl)oxy)-9-methyl-14a-(((1-methylcyclopropyl)sulfonyl)carbamoyl)-5,16-dioxo-1,2,3,5,6,7,8,9,10,11,13a,14,14a,15,16,16a-hexadecahydrocyclopropa[e]pyrrolo[1,2-a][1,4]diazacyclopentadecin-6-yl)carbamate]	4.82 to 103	< 5.46	–	–
CC[C@@H]1C[C@H](C)CC/C=C\[C@@H]2C[C@@]2(C(=O)NS(=O)(=O)C2(C)CC2)NC(=O)[C@@H]2C[C@@H](Oc3nnc(OC)c4ccccc34)CN2C(=O)[C@H]1NC(=O)OC(C)(C)C(F)(F)F [Compound 5018, 1,1,1-trifluoro-2-methylpropan-2-yl((2R,6S,7R,9R,13aS,14aR,16aS,Z)-7-ethyl-2-((4-methoxyphthalazin-1-yl)oxy)-9-methyl-14a-(((1-methylcyclopropyl)sulfonyl)carbamoyl)-5,16-dioxo-1,2,3,5,6,7,8,9,10,11,13a,14,14a,15,16,16a-hexadecahydrocyclopropa[e]pyrrolo[1,2-a][1,4]diazacyclopentadecin-6-yl)carbamate]	< 5.46	< 5.46	–	–
[2H]C([2H])([2H])C(OC(=O)N[C@@H]1C(=O)N2C[C@H](Oc3nnc(OC)c4ccccc34)C[C@H]2C(=O)N[C@]2(C(=O)NS(=O)(=O)C3(C)CC3)C[C@H]2/C=C\CC[C@H](C)C[C@H]1CC)(C([2H])([2H])[2H])C(F)(F)F [Compound 5019]	4.82 to 103	< 5.46	7.27	3.65
[2H]C([2H])([2H])C(OC(=O)N[C@@H]1C(=O)N2C[C@H](Oc3nnc(OC)c4ccccc34)C[C@H]2C(=O)N[C@]2(C(=O)NS(=O)(=O)C3(C)CC3)C[C@H]2/C=C\CC[C@@H](C)C[C@H]1CC)(C([2H])([2H])[2H])C(F)(F)F [Compound 5020]	< 5.46	< 5.46	–	–
